Measurements from patent publication US10544136B2, “Modulators of sphingosine phosphate receptors” (The Scripps Research Institute, priority 2008, dated 2020).
Where two headings read alike, the source gives them in different places.

Assays:
[1] = target: S1P1 (Homo sapiens (Human), UniProt P21453); assay: S1P1 agonist assay (Ec50 S1P1Ag); type: cell-based
Excerpt: The exact dosage will depend upon the activity of the compound, mode of administration, on the therapy desired, form in which administered, the subject to be treated and the body weight of the subject to be treated, and the preference and experience of the physician or veterinarian in charge. S1P1 agonist bioactivity of the compounds of the invention can be determined by use of an in vitro assay system which measures the activation of S1P1, which can be expressed as EC50 values, as are well known in the art inhibitors of the invention can be determined by the method described in the Examples.

[2] = target: S1P3 (Homo sapiens (Human), UniProt Q99500); assay: S1P3 agonist assay (Ec50 S1P3Ag); type: cell-based; conditions: read-out: Ec 50 (S1P3Ag)
S1P3, sequence (Q99500 whole entry, species assumed): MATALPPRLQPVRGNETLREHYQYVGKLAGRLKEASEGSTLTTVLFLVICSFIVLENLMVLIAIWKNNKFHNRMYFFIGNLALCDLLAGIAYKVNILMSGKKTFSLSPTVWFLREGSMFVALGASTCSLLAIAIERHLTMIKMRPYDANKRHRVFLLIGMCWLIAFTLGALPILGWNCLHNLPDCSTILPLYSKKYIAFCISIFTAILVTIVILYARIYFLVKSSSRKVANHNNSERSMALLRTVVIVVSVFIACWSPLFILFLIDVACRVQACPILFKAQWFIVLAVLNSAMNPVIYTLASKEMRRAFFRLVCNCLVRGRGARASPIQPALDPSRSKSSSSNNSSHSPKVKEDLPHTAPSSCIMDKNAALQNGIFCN

S1P1, sequence (P21453 whole entry): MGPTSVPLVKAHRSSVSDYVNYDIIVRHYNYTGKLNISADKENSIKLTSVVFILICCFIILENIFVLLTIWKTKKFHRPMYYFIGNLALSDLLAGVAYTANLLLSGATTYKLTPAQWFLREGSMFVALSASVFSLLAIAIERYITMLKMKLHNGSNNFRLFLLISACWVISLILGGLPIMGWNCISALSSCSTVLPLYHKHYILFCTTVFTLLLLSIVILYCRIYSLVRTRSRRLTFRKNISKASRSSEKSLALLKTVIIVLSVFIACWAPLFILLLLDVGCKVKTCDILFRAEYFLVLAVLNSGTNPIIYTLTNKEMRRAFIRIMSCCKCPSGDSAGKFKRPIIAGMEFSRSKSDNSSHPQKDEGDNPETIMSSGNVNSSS

Compound | EC50 [1] | EC50 [2] | other results
CCOc1ccc(-c2nc(-c3cccc(CO)c3)no2)cc1OCC [Compound 187] | 0.007 µM | 1.5 µM | 
FC(F)(F)c1ccc(-c2noc(Cc3ccncc3)n2)cc1 [Compound 5] |  | 5.1 µM | EC50 ([1]; unit μM/uM): 4.1 µM
CCOc1ccc(-c2nc(-c3cccc4c3CCC4N(C)C)no2)cc1OCC (stereo not drawn) [Compound 217] | 0.0246 µM | 0.0135 µM | 
FC(F)(F)c1cc(Br)cc(-c2nc(-c3ccncc3)no2)c1 [Compound 106] | 0.063 µM | 8 µM | 
CCOc1ccc(-c2nc(-c3cccc4ccccc34)no2)cc1OCC [Compound 211] | 0.0272 µM |  | EC50 ([2]; unit μM): 13.5 µM
CCOc1cc(-c2nc(-c3ccncc3)no2)ccc1OC [Compound 50] | 0.064 µM | 2.7 µM | 
CCOc1ccc(-c2nc(-c3ccnc(CO)c3)no2)cc1OCC [Compound 209] | 0.00014 µM | 0.938 µM | 
CCOc1ccc(-c2nc(-c3cncc(C)c3)no2)cc1OCC [Compound 58] | 0.0117 µM | 3.4 µM | 
CCOc1ccc(-c2nc(-c3cccc(CNCCO)c3C)no2)cc1OCC [Compound 251] | 0.0034 µM | 0.692 µM | 
CCOc1ccc(-c2nc(-c3ccc(CO)cc3C)no2)cc1OCC [Compound 201] | 0.0005 µM | 0.716 µM | 
Nc1cc(-c2noc(-c3ccc(-c4ccccc4)c(C(F)(F)F)c3)n2)ccn1 [Compound 61] | 0.00078 µM | 1.32 µM | 
CCOc1ccc(-c2nc(-c3cccc4[nH]ccc34)no2)cc1OCC [Compound 110] | 0.00052 µM | 0.823 µM | 
CCOc1ccc(-c2nc(-c3ccc(C)c(C)c3)no2)cc1OCC [Compound 184] | 0.0117 µM | 2 µM | 
CCOc1ccc(-c2nc(-c3cccc(CN4CCCC4)c3C)no2)cc1OCC [Compound 152] | 0.006 µM | 2.1 µM | 
CCOc1ccc(-c2nc(-c3ccc(CO)nc3)no2)cc1OCC [Compound 214] | 0.0159 µM |  | EC50 ([2]; unit μM): 13.5 µM
CC(C)(C)c1cc(-c2nc(-c3ccncc3)no2)cc(C(C)(C)C)c1 [Compound 53] | 0.156 µM | 0.327 µM | 
CC(C)(C)c1cc(-c2nc(-c3ccc(S(N)(=O)=O)cc3)no2)cc(C(C)(C)C)c1 [Compound 14] |  |  | EC50 ([1]; unit μM/uM): 12.3 µM
CCOc1ccc(-c2nc(-c3cccc(CN(C)C)c3)no2)cc1OCC [Compound 78] | 0.0452 µM |  | 
CCOc1ccc(-c2nc(-c3nccc4ccccc34)no2)cc1OCC [Compound 219] | 0.013 µM |  | 
c1cc(-c2noc(-c3ccc(C4CCCCC4)cc3)n2)ccn1 [Compound 56] | 0.0834 µM |  | 
CCOc1cccc(-c2nc(-c3cccnc3)no2)c1 [Compound 67] |  |  | EC50 ([1]; unit μM/uM): 95.5 µM
CCC(c1ccccc1)c1nc(-c2ccncc2)no1 (stereo not drawn) [Compound 109] | 1.5 µM |  | 
CC(C)Oc1ccc(-c2nc(-c3cccc4c3CCC4O)no2)cc1C(F)(F)F (stereo not drawn) [Compound 259, 4-(5-(4-isopropoxy-3-(trifluoromethyl)phenyl)-1,2,4-oxadiazol-3-yl)-2,3-dihydro-1H-inden-1-ol] | < 0.0005 µM |  | 
CCOc1ccc(-c2nc(-c3ccnc4[nH]ccc34)no2)cc1OCC [Compound 167] | 0.0022 µM | 2.2 µM | 
CCOc1ccc(-c2nc(-c3cccc4[nH]cc(CNC(C)(C)CO)c34)no2)cc1OCC [Compound 213] | 0.636 µM |  | 
CCOc1ccc(-c2nc(-c3ccc(CN4C[C@H](O)C[C@H]4C(=O)N(C)C)cc3C)no2)cc1OCC [Compound 210] | 0.164 µM |  | 
CCOc1ccc(-c2nc(-c3cccc4c3CCC4NCCN(CC)CC)no2)cc1OCC (stereo not drawn) [Compound 243] | 0.0007 µM |  | 

Compound | EC50 [1] | EC50 [2] | other results
Fc1cc(-c2nc(-c3ccc(C(F)(F)F)cc3)no2)ccn1 [Compound 6] |  |  | EC50 ([1]; unit μM/uM): 4.1 µM
CCOc1cccc(-c2nc(-c3ccncc3C)no2)c1 [Compound 64] | 0.228 µM |  | 
CCOc1cccc(-c2nc(-c3ccncc3)no2)c1 [Compound 38] | 0.938 µM |  | 
CCOc1ccc(-c2nc(-c3ccnc(CNCCN(CC)CC)c3)no2)cc1OCC [Compound 226] | 0.0027 µM |  | 
CCOc1ccc(-c2nc(-c3ccc4[nH]cc(CNCCN(C)C)c4c3)no2)cc1OCC [Compound 238] | 0.686 µM |  | 
CCOc1ccc(-c2nc(-c3cccc4[nH]cc(CNCCN(CC)CC)c34)no2)cc1OCC [Compound 204] | 0.0322 µM |  | 
CCOc1ccc(-c2nc(-c3cccc4c3CCC4NC(C)(C)CO)no2)cc1OCC (stereo not drawn) [Compound 216] | 0.0915 µM |  | 
COc1cc(-c2nc(-c3cccnc3)no2)ccc1C [Compound 75] | 0.274 µM |  | 
CCOc1ccc(-c2nc(-c3ccc(CCN4CCCC4)cc3)no2)cc1OCC [Compound 191] | 0.0538 µM |  | 
CCOc1ccc(-c2nc(-c3ccc(C#N)cc3C)no2)cc1OCC [Compound 122] | 0.005 µM |  | 
CCOc1ccc(-c2nc(-c3cccc4c3CCC4O)no2)cc1C#N (stereo not drawn) [Compound 262, 2-ethoxy-5-(3-(1-hydroxy-2,3-dihydro-1H-inden-4-yl)-1,2,4-oxadiazol-5-yl)benzonitrile] | < 0.0005 µM |  | 
CCOc1ccc(-c2noc(-c3ccncc3)n2)cc1OCC [Compound 257] | 0.0073 µM |  | 
[O-][n+]1ccc(-c2nc(-c3ccc(C(F)(F)F)cc3)no2)cc1 [Compound 3] |  |  | EC50 ([1]; unit μM/uM): 5.9 µM
CC(C)COc1ccc(-c2nc(-c3ccncc3)no2)cc1 [Compound 9] |  |  | EC50 ([1]; unit μM/uM): 68.4 µM
CCOc1ccc(-c2nc(-c3ccc4[nH]cc(CNCCN(CC)CC)c4c3)no2)cc1OCC [Compound 224] | 0.485 µM |  | 
Nc1cc(-c2nc(-c3ccc(S(N)(=O)=O)cc3)no2)ccn1 [Compound 18] | 0.397 µM |  | 
COc1cc(-c2nc(-c3ccncc3)no2)ccc1C [Compound 39] | 0.418 µM |  | 
COc1cc(-c2noc(-c3ccc(C#N)c(C)c3)n2)ccc1C [Compound 46] | 0.544 µM |  | 
CCOc1ccc(-c2nc(-c3cccc4c3CCC4O)no2)cc1OCC (stereo not drawn) [Compound 215, 4-(5-(3,4-diethoxyphenyl)-1,2,4-oxadiazol-3-yl)-2,3-dihydro-1H-inden-1-ol] | 0.0001 µM |  | 
CCOc1ccc(-c2nc(-c3cccc4c3CCN4CCO)no2)cc1OCC [Compound 234] | < 0.0005 µM |  | 
CCOc1ccc(-c2nc(-c3ccc4[nH]cc(CN5CCCC5)c4c3)no2)cc1OCC [Compound 223] |  |  | EC50 ([1]; unit μM/uM): 10 µM
CCOc1ccc(-c2nc(-c3cccc(CN4CCCC4)c3)no2)cc1OCC [Compound 77] | 0.45 µM |  | 
CCCCc1ccc(-c2nc(-c3ccncc3)no2)cc1 [Compound 51] | 0.847 µM |  | 
COc1cc(-c2noc(-c3ccnc(Cl)c3)n2)ccc1C [Compound 29] | 0.576 µM |  | 
COc1cc(-c2nc(-c3ccc(C(F)(F)F)cc3)no2)ccn1 [Compound 1] |  |  | EC50 ([1]; unit μM/uM): 466 µM
Cc1cc(-c2noc(-c3ccc(C)c(C(F)(F)F)c3)n2)ccn1 [Compound 70] |  |  | EC50 ([1]; unit μM/uM): 7.08 µM

Second part, led by results:

EC50 [1] | EC50 [2] | Compound | other results
0.0031 µM | 1.8 µM | CCOc1ccc(-c2nc(-c3ccc4c(c3)CCN4)no2)cc1OCC [Compound 154] | 
0.113 µM | 0.448 µM | CC(C)Cc1ccc(C(C)c2nc(-c3ccncc3)no2)cc1 (stereo not drawn) [Compound 55] | 
0.0716 µM | 0.322 µM | COc1ccc(-c2nc(-c3ccncc3)no2)cc1OC1CCCC1 [Compound 54] | 
0.0011 µM | 0.691 µM | CCOc1ccc(-c2nc(-c3ccc(CCO)cc3)no2)cc1OCC [Compound 192] | 
0.0042 µM | 0.606 µM | CCOc1ccc(-c2nc(-c3ccc(CO)cc3)no2)cc1OCC [Compound 186] | 
0.0017 µM | 0.387 µM | CCOc1ccc(-c2nc(-c3ccnc(N)c3)no2)cc1OCC [Compound 36] | 
0.601 µM |  | COc1cc(-c2nc(-c3cncc(C)c3)no2)ccc1C [Compound 74] | 
0.487 µM |  | Cc1ccc(-c2nc(-c3ccncc3)no2)cc1C(F)(F)F [Compound 49] | 
0.0041 µM | 5.2 µM | CCOc1ccc(-c2nc(-c3cccc(CN(C)C)c3C)no2)cc1OCC [Compound 129] | 
0.005 µM |  | Cc1cncc(-c2noc(-c3ccc(-c4ccccc4)c(C(F)(F)F)c3)n2)c1 [Compound 62] | EC50 ([2]; unit μM): 24 µM
0.001 µM | 0.803 µM | Cc1cnccc1-c1noc(-c2ccc(-c3ccccc3)c(C(F)(F)F)c2)n1 [Compound 60] | 
0.246 µM | 3.33 µM | CCCOc1ccc(-c2nc(-c3ccncc3)no2)cc1 [Compound 10] | 
0.29 µM |  | CCn1nc(C)cc1-c1nc(-c2ccncc2)no1 [Compound 57] | 
3.3 µM | 3.5 µM | COc1cc(-c2noc(-c3ccnc(C)c3)n2)ccc1C [Compound 23] | 
0.0377 µM |  | Cc1cnccc1-c1noc(-c2ccc(C)c(C(F)(F)F)c2)n1 [Compound 68] | 
0.341 µM |  | CCOc1ccc(-c2nc(-c3ccc4ccccc4c3)no2)cc1OCC [Compound 212] | 
6.5 µM |  | COc1cc(OC)c(-c2nc(-c3ccncc3)no2)cc1OC [Compound 11] | 
0.01 µM |  | CC(C)Oc1ccc(-c2nc(-c3cccc4c3CCC4NCCO)no2)cc1C(F)(F)F (stereo not drawn) [Compound 263, 2-(4-(5-(4-isopropoxy-3-(trifluoromethyl)phenyl)-1,2,4-oxadiazol-3-yl)-2,3-dihydro-1H-inden-1-ylamino)ethanol] | 
< 0.0005 µM |  | 4-(5-(4-isopropoxy-3-(trifluoromethyl)phenyl)-1,2,4-oxadiazol-3-yl)-2,3-dihydro-1H-inden-1-ol [Compound 261] | 
0.0956 µM |  | CCOc1ccc(-c2nc(-c3ccnc(C(=O)O)c3)no2)cc1OCC [Compound 241] | 
0.0265 µM |  | CCOc1ccc(-c2nc(-c3ccnc(C(=O)NCCO)c3)no2)cc1OCC [Compound 242] | 
0.003 µM |  | CCOc1ccc(-c2nc(-c3ccc4cc[nH]c4c3)no2)cc1OCC [Compound 124] | 
0.0294 µM |  | CCOc1ccc(-c2nc(-c3cccc(N)c3C)no2)cc1OCC [Compound 165] | 
0.733 µM |  | CCOc1ccc(-c2nc(-c3ccc(C4=NCCN4)cc3)no2)cc1OCC [Compound 181] | 
